pIC50: −log10 of the molar value.
Target: T1, Human complement C1s enzyme (Homo sapiens, UniProt P09871)
T1 construct: purified from human serum, Complement Technology, Inc; purchased Complement Technology, Inc; host or cells: human serum (plasma-derived native protein)
T1 sequence (P09871 438-688 limits assumed): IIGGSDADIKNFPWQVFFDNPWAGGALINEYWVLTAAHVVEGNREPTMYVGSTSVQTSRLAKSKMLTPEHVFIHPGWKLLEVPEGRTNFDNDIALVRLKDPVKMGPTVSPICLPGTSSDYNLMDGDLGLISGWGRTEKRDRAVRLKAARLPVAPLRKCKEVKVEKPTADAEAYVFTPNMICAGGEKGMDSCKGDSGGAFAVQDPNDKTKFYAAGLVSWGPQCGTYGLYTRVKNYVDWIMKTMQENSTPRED
T1 sequence (P09871 16-437 partner limits assumed): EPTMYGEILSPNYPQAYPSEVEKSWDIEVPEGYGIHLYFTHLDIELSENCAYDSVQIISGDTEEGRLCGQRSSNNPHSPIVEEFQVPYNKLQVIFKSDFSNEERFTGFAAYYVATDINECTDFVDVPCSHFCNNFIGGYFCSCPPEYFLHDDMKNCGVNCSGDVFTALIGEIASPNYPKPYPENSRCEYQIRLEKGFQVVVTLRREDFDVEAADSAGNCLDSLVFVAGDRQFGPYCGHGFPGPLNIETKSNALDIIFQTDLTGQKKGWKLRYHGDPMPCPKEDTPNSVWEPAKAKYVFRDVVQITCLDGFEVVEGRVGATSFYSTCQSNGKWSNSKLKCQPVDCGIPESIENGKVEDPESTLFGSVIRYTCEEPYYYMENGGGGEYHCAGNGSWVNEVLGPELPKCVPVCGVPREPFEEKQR
Assay: Human C1s enzyme assay
Type: biochemical
Details: human complement C1s enzyme 1.16 nM, substrate Z-L-Lys-SBzl, A405; read-out: IC50 (Stars)
Outline: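 Thioesterase activity followed colorimetrically (DTNB, A405, 30-s reads) using 100 μM Z-L-Lys-SBzl substrate. Enzyme, human serum-derived C1s at 1.16 nM final, was incubated with test compound for 5 min, room temperature, pH 7.5 Tris buffer with 1 M NaCl. Rate-versus-concentration data fitted by nonlinear regression for IC50.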

SMILES	pIC50
O=C(Cn1c(-c2ccc(C(F)(F)F)cc2)ncc(NCc2ccc3oc4ccccc4c3c2)c1=O)NCc1cc2cnccc2[nH]1 [Compound 135, N-((1H-pyrrolo[3,2-c]pyridin-2-yl)methyl)-2-(5-((dibenzo [b,d]furan-2-ylmethyl)amino)-6-oxo-2-(4-(trifluoromethyl)-phenyl)pyrimidin-1(6H)-yl)-acetamide]	> 7.00
O=C(Cn1c(-c2ccc(OC(F)(F)F)cc2)ncc(NCc2ccc3oc4ccccc4c3c2)c1=O)NCc1cc2cnccc2[nH]1 [Compound 136, N-((1H-pyrrolo[3,2-c]pyridin-2-yl)methyl)-2-(5-((dibenzo [b,d]furan-2-ylmethyl)amino)-6-oxo-2-(4-(trifluoromethoxy)-phenyl)pyrimidin-1(6H)-yl)-acetamide]	> 7.00
O=C(Cn1c(-c2ccc(OC3COC3)cc2)ncc(NCc2ccc3c(c2)-c2ccccc2C3(F)F)c1=O)NCc1cc2cnccc2[nH]1 [Compound 138, N-((1H-pyrrolo[3,2-c]pyridin-2-yl)methyl)-2-(5-(((9,9-difluoro-9H-fluoren-3-yl)meth-yl)amino)-2-(4-(oxetan-3-yl-oxy)phenyl)-6-oxopyrimidin-1(6H)-yl)acetamide]	> 7.00
O=C(Cn1c(-c2ccccc2)ncc(NCc2ccc3oc4ccccc4c3c2)c1=O)NCc1cc2cnccc2s1 [Compound 141, 2-(5-((Dibenzo[b,d]furan-2-ylmethyl)amino)-6-oxo-2-phenylpyrimidin-1(6H)-yl)-N-(thieno[3,2-c]pyridin-2-ylmethyl)acetamide]	> 7.00
O=C(Cn1c(-c2ccccc2)ncc(NCc2ccc3oc4ccccc4c3c2)c1=O)NCc1cc2c(s1)CCNC2 [Compound 142, 2-(5-((dibenzo[b,d]furan-2-ylmethyl)amino)-6-oxo-2-phenylpyrimidin-1(6H)-yl)-N-((4,5,6,7-tetrahydrothieno[3,2-c]pyridine-2-yl)methyl)acetamide]	> 7.00
O=C(Cn1c(-c2ccccc2)ncc(NCc2ccc3oc4ccccc4c3c2)c1=O)NCc1cc2c(s1)CNCC2 [Compound 143, 2-(5-((dibenzo[b,d]furan-2-yl-methyl)amino)-6-oxo-2-phen-ylpyrimidin-1(6H)-yl)-N-((4,5,6,7-tetrahydrothieno [2,3-c]pyridin-2-yl)methyl)-acetamide]	> 7.00
O=C(Cn1c(-c2ccccc2)ncc(NCc2ccc3oc4ccccc4c3c2)c1=O)NCc1cc2cnccn2c1 [Compound 144, 2-(5-((dibenzo[b,d]furan-2-ylmethyl)amino)-6-oxo-2-phenylpyrimidin-1(6H)-yl)-N-(pyrrolo[1,2-a]pyrazin-7-ylmethyl)acetamide]	< 6.00
O=C(Cn1c(-c2ccc(NC(=O)CO)cc2)ncc(NCc2ccc3oc4ccccc4c3c2)c1=O)NCc1cc2cnccc2[nH]1 [Compound 147, N-((1H-pyrrolo[3,2-c]pyridine-2-yl)methyl)-2-(5-((dibenzo[b,d]furan-2-ylmethyl)amino)-2-(4-(2-hydroxyacetamido)phenyl)-6-oxopyrimidin-1(6H)-yl)acetamide]	> 7.00
O=C(Cn1c(-c2ccc(N3CCCC3=O)cc2)ncc(NCc2ccc3oc4ccccc4c3c2)c1=O)NCc1cc2cnccc2[nH]1 [Compound 153, N-((1H-pyrrolo[3,2-c]pyridin-2-yl)methyl)-2-(5-((dibenzo [b,d]furan-2-ylmethyl)amino)-6-oxo-2-(4-(2-oxopyrrolidin-1-yl)phenyl)pyrimidin-1(6H)-yl)acetamide]	> 7.00
O=C(Cn1c(-c2ccc(OCCOc3ccc(F)cc3)cc2)ncc(NCc2ccc3oc4ccccc4c3c2)c1=O)NCc1cc2cnccc2[nH]1 [Compound 154, N-((1H-pyrrolo[3,2-c]pyridine-2-yl)methyl)-2-(5-((dibenzo[b,d]furan-2-ylmethyl)amino)-2-(4-(2-(4-fluorophenoxy)ethoxy)phenyl)-6-oxopyrimidin-1(6H)-yl)acetamide]	> 7.00
O=C(Cn1c(-c2ccc(OCc3ccccc3)cc2)ncc(NCc2ccc3oc4ccccc4c3c2)c1=O)NCc1cc2cnccc2[nH]1 [Compound 155, N-((1H-pyrrolo[3,2-c]pyridin-2-yl)methyl)-2-(2-(4-(benzyl-oxy)phenyl)-5-((dibenzo[b,d]furan-2-ylmethyl)amino)-6-oxopyrimidin-1(6H)-yl)acet-amide]	> 7.00
O=C(Cn1c(-c2ccccc2)ncc(NC(=O)c2ccc(-c3ccc(OC(F)(F)F)cc3)cc2)c1=O)NCc1cc2cnccc2[nH]1 [Compound 164, N-(1-(2-(((1H-pyrrolo[3,2-c]pyridin-2-yl)methyl)amino)-2-oxoethyl)-6-oxo-2-phenyl-1,6-dihydropyrimidin-5-yl)-4′-(trifluoromethoxy)-[1,1′-biphenyl]-4-carboxamide]	> 7.00
O=C(Cn1c(-c2ccccc2)ncc(NC(=O)c2cccc(-c3ccccc3)c2)c1=O)NCc1cc2cnccc2[nH]1 [Compound 165, N-(1-(2-(((1H-pyrrolo[3,2-c]pyridin-2-yl)methyl)amino)-2-oxoethyl)-6-oxo-2-phenyl-1,6-dihydropyrimidin-5-yl)-[1,1′-biphenyl]-3-carboxamide]	> 7.00
O=C(Cn1c(-c2ccccc2)ncc(NC(=O)c2ccc(-c3ccccc3)cc2F)c1=O)NCc1cc2cnccc2[nH]1 [Compound 166, N-(1-(2-(((1H-pyrrolo[3,2-c]pyridine-2-yl)methyl)amino)-2-oxoethyl)-6-oxo-2-phenyl-1,6-dihydropyrimidin-5-yl)-3-fluoro-[1,1′-biphenyl]-4-carboxamide]	> 7.00
O=C(Cn1c(-c2ccccc2)ncc(NC(=O)c2cccc(-c3nccs3)c2)c1=O)NCc1cc2cnccc2[nH]1 [Compound 167, N-(1-(2-(((1H-pyrrolo[3,2-c]pyridine-2-yl)methyl)amino)-2-oxoethyl)-6-oxo-2-phenyl-1,6-dihydropyrimidin-5-yl)-3-(thiazol-2-yl)benzamide]	> 7.00
O=C(Cn1c(-c2ccccc2)ncc(NC(=O)c2cnc(-c3ccccc3)[nH]2)c1=O)NCc1cc2cnccc2[nH]1 [Compound 168, N-(1-(2-(((1H-pyrrolo[3,2-c]pyridin-2-yl)methyl)amino)-2-oxoethyl)-6-oxo-2-phenyl-1,6-dihydropyrimidin-5-yl)-2-phenyl-1H-imidazole-5-carbox-amide]	> 7.00
O=C(Cn1c(-c2ccccc2)ncc(NC(=O)c2ncc(-c3ccccc3)[nH]2)c1=O)NCc1cc2cnccc2[nH]1 [Compound 169, N-(1-(2-(((1H-pyrrolo[3,2-c]pyridin-2-yl)methyl)amino)-2-oxoethyl)-6-oxo-2-phenyl-1,6-dihydropyrimidin-5-yl)-5-phen-yl-1H-imidazole-2-carbox-amide]	> 7.00
O=C(Cn1c(-c2ccccc2)ncc(NC(=O)c2ncc(-c3ccccc3)s2)c1=O)NCc1cc2cnccc2[nH]1 [Compound 170, N-(1-(2-(((1H-pyrrolo[3,2-c]pyridin-2-yl)methyl)amino)-2-oxoethyl)-6-oxo-2-phenyl-1,6-dihydropyrimidin-5-yl)-5-phen-ylthiazole-2-carboxamide]	> 7.00
O=C(Cn1c(-c2ccccc2)ncc(NC(=O)c2ncc(-c3ccccc3)o2)c1=O)NCc1cc2cnccc2[nH]1 [Compound 171, N-(1-(2-(((1H-pyrrolo[3,2-c]pyridine-2-yl)methyl)amino)-2-oxoethyl)-6-oxo-2-phenyl-1,6-dihydropyrimidin-5-yl)-5-phenyloxazole-2-carboxamide]	> 7.00
O=C(Cn1c(-c2ccccc2)ncc(NC(=O)c2ccc(-c3nccs3)cc2)c1=O)NCc1cc2cnccc2[nH]1 [Compound 172, N-(1-(2-(((1H-pyrrolo[3,2-c]pyridine-2-yl)methyl)amino)-2-oxoethyl)-6-oxo-2-phenyl-1,6-dihydropyrimidin-5-yl)-4-(thiazol-2-yl)benzamide]	> 7.00
O=C(Cn1c(-c2ccccc2)ncc(NC(=O)c2ccc(-c3cnc[nH]3)cc2)c1=O)NCc1cc2cnccc2[nH]1 [Compound 174, N-(1-(2-(((1H-pyrrolo[3,2-c]pyridine-2-yl)methyl)amino)-2-oxoethyl)-6-oxo-2-phenyl-1,6-dihydropyrimidin-5-yl)-4-(1H-imidazol-5-yl)benzamide]	> 7.00
O=C(Cn1c(-c2ccccc2)ncc(NC(=O)c2ccc(-c3ncc[nH]3)cc2)c1=O)NCc1cc2cnccc2[nH]1 [Compound 175, N-(1-(2-(((1H-pyrrolo[3,2-c]pyridin-2-yl)methyl)amino)-2-oxoethyl)-6-oxo-2-phenyl-1,6-dihydropyrimidin-5-yl)-4-(1H-imidazol-2-yl)benzamide]	> 7.00
O=C(Cn1c(-c2ccccc2)cnc(NCc2ccc3oc4ccccc4c3c2)c1=O)NCc1cc2cnccc2[nH]1 [Compound 176, N-((1H-pyrrolo[3,2-c]pyridin-2-yl)methyl)-2-(3-((dibenzo [b,d]furan-2-ylmethyl)amino)-2-oxo-6-phenylpyrazin-1(2H)-yl)acetamide]	> 7.00

— patent publication US20260184707A1, “PHARMACEUTICAL COMPOUNDS FOR THE TREATMENT OF COMPLEMENT MEDIATED DISORDERS” (ALEXION PHARMACEUTICALS, INC., priority 2022, published 2026)
